Reference: US9328122B2, “7-substituted Hanfangichin B derivative, and preparation method and use thereof” (HANGZHOU BENSHENG PHARMACEUTICAL CO., LTD., priority 2012, dated 2016)
In brackets after ≈: the same amount, converted by molar mass.

Tests used:
[1] = system: H9 (acute lymphoblastic leukemia) cells; assay: MTT cell growth inhibition, leukemia cells; assay type: cell-based, human; conditions: Homo sapiens, H9, 72 h, MTT; for IC50: read-out: IC50; for IC90: read-out: IC90
Outline: (§1)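 MTT read-out of viable cells after 72 h compound exposure at 37° C., 5% CO2; 6000 cells/well in RPMI-1640 + 10% FBS, dosed one day after seeding over a range of concentrations.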

[2] = system: Jurkat (acute lymphoblastic leukemia) cells; assay: MTT cell growth inhibition, leukemia cells; assay type: cell-based, human; conditions: Homo sapiens, Jurkat, 72 h, MTT; for IC50: read-out: IC50; for IC90: read-out: IC90
Outline: as §1

[3] = system: Kasumi-1 (acute myeloid leukemia M2 type) cells; assay: MTT cell growth inhibition, leukemia cells; assay type: cell-based, human; conditions: Homo sapiens, Kasumi-1, 72 h, MTT; for IC50: read-out: IC50; for IC90: read-out: IC90
Outline: as §1

[4] = system: RPMI 8226 (multiple myeloma) cells; assay: MTT cell growth inhibition, multiple myeloma cells; assay type: cell-based, human; conditions: Homo sapiens, RPMI 8226, 72 h, MTT; for IC50: read-out: IC50; for IC90: read-out: IC90
Outline: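 RPMI 8226 myeloma cells, 6000 per well in RPMI-1640 with 10% FBS, were dosed with fangchinoline derivatives at several concentrations the day after seeding. Incubation ran 72 h at 37° C in 5% CO2, then viable cells were measured by MTT.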

[5] = system: CNE (nasopharyngeal carcinoma) cells; assay: MTT cell growth inhibition, solid tumor cells; assay type: cell-based, human; conditions: Homo sapiens, CNE, 72 h, MTT; for IC50: read-out: IC50; for IC90: read-out: IC90
Outline: (§2)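 Human tumor cells seeded at 6000 per well grow 24 h in serum-supplemented (10% FBS) high-glucose DMEM. A 72 h incubation with graded compound doses at 37 °C follows, and MTT reports viable cell number.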

[6] = system: PANC-1 (pancreatic cancer) cells; assay: MTT cell growth inhibition, solid tumor cells; assay type: cell-based, human; conditions: Homo sapiens, PANC-1, 72 h, MTT; for IC50: read-out: IC50; for IC90: read-out: IC90
Outline: as §2

[7] = system: PC-3 (prostate cancer) cells; assay: MTT cell growth inhibition, solid tumor cells; assay type: cell-based, human; conditions: Homo sapiens, PC-3, 72 h, MTT; for IC50: read-out: IC50; for IC90: read-out: IC90
Outline: as §2

[8] = system: SK-OV-3 (ovarian cancer) cells; assay: MTT cell growth inhibition, solid tumor cells; assay type: cell-based, human; conditions: Homo sapiens, SK-OV-3, 72 h, MTT; for IC50: read-out: IC50; for IC90: read-out: IC90
Outline: as §2

[9] = system: A549 (human lung cancer) cells; assay: MTT cell growth inhibition, solid tumor cells; assay type: cell-based; conditions: Homo sapiens, A549, 72 h, MTT; for IC50: read-out: IC50; for IC90: read-out: IC90
Outline: as §2

[10] = system: Becap-37 (human breast cancer) cells; assay: MTT cell growth inhibition, solid tumor cells; assay type: cell-based; conditions: Homo sapiens, Becap-37, 72 h, MTT; for IC50: read-out: IC50; for IC90: read-out: IC90
Outline: as §2

[11] = system: Hela (human cervical cancer) cells; assay: MTT cell growth inhibition, solid tumor cells; assay type: cell-based; conditions: Homo sapiens, Hela, 72 h, MTT; for IC50: read-out: IC50; for IC90: read-out: IC90
Outline: as §2

[12] = system: Hep G2 (human liver cancer) cells; assay: MTT cell growth inhibition, solid tumor cells; assay type: cell-based; conditions: Homo sapiens, HepG2, Hep G2, 72 h, MTT; for IC50: read-out: IC50; for IC90: read-out: IC90
Outline: as §2

[13] = system: Hep-2 (laryngeal carcinoma) cells; assay: MTT cell growth inhibition, solid tumor cells; assay type: cell-based; conditions: Homo sapiens, Hep-2, 72 h, MTT; for IC50: read-out: IC50; for IC90: read-out: IC90
Outline: as §2

[14] = system: MG-63 (osteosarcoma) cells; assay: MTT cell growth inhibition, solid tumor cells; assay type: cell-based; conditions: Homo sapiens, MG-63, 72 h, MTT; for IC50: read-out: IC50; for IC90: read-out: IC90
Outline: as §2

[15] = system: MGC-803 (human gastric cancer) cells; assay: MTT cell growth inhibition, solid tumor cells; assay type: cell-based; conditions: MGC-803, 72 h, MTT; for IC50: read-out: IC50; for IC90: read-out: IC90
Outline: as §2

[16] = system: RKO (human colon adenocarcinoma) cells; assay: MTT cell growth inhibition, solid tumor cells; assay type: cell-based; conditions: Homo sapiens, RKO, 72 h, MTT; for IC50: read-out: IC50; for IC90: read-out: IC90
Outline: as §2

[17] = system: U87-MG (malignant glioma) cells; assay: MTT cell growth inhibition, solid tumor cells; assay type: cell-based; conditions: Homo sapiens, U-87 MG, U87-MG, 72 h, MTT; for IC50: read-out: IC50; for IC90: read-out: IC90
Outline: as §2

tumor = assay: Antitumor activity compared with fangchinoline, overall statement; assay type: cell-based; conditions: tumor type not specified

COc1ccc2cc1Oc1ccc(cc1)C[C@H]1c3cc(c(OC)cc3CCN1C)Oc1c(OS(=O)(=O)c3ccc(C)cc3)c(OC)cc3c1[C@H](C2)N(C)CC3 [BS-FC-102]
IC50 [1]: 2.4 µg/mL (≈ 3.15 µM) | IC90 [1]: 6.4 µg/mL (≈ 8.39 µM) | IC50 [2]: 0.72 µg/mL (≈ 0.944 µM) | IC90 [2]: 1.97 µg/mL (≈ 2.58 µM) | IC50 [3]: 1.93 µg/mL (≈ 2.53 µM) | IC90 [3]: 4.32 µg/mL (≈ 5.66 µM) | IC50 [4]: 0.14 µg/mL (≈ 0.184 µM) | IC90 [4]: 0.77 µg/mL (≈ 1.01 µM) | IC50 [5]: 3.5 µg/mL (≈ 4.59 µM) | IC90 [5]: 6.9 µg/mL (≈ 9.04 µM) | IC50 [6]: 3.16 µg/mL (≈ 4.14 µM) | IC90 [6]: 6.75 µg/mL (≈ 8.85 µM) | IC50 [7]: 3.17 µg/mL (≈ 4.16 µM) | IC90 [7]: 5.85 µg/mL (≈ 7.67 µM) | IC50 [8]: 1.92 µg/mL (≈ 2.52 µM) | IC90 [8]: 8.07 µg/mL (≈ 10.6 µM) | IC50 [9]: 2.41 µg/mL (≈ 3.16 µM) | IC90 [9]: 6.55 µg/mL (≈ 8.59 µM) | IC50 [10]: 2.49 µg/mL (≈ 3.26 µM) | IC90 [10]: 4 µg/mL (≈ 5.24 µM) | IC50 [11]: 1.44 µg/mL (≈ 1.89 µM) | IC90 [11]: 3.39 µg/mL (≈ 4.44 µM) | IC50 [12]: 1.56 µg/mL (≈ 2.04 µM) | IC90 [12]: 3.94 µg/mL (≈ 5.16 µM) | IC50 [13]: 3.99 µg/mL (≈ 5.23 µM) | IC90 [13]: 11.1 µg/mL (≈ 14.5 µM) | IC50 [14]: 3.18 µg/mL (≈ 4.17 µM) | IC90 [14]: 4.83 µg/mL (≈ 6.33 µM) | IC50 [15]: 1.71 µg/mL (≈ 2.24 µM) | IC90 [15]: 4.95 µg/mL (≈ 6.49 µM) | IC50 [16]: 1.44 µg/mL (≈ 1.89 µM) | IC90 [16]: 2.33 µg/mL (≈ 3.05 µM) | IC50 [17]: 1.79 µg/mL (≈ 2.35 µM) | IC90 [17]: 5.39 µg/mL (≈ 7.06 µM) | antitumor activity compared with that of fangchinoline (tumor): significantly superior

COc1ccc2cc1Oc1ccc(cc1)C[C@H]1c3cc(c(OC)cc3CCN1C)Oc1c(OCc3ccc(C(F)(F)F)cc3)c(OC)cc3c1[C@H](C2)N(C)CC3 [BS-FC-216]
IC50 [1]: 1.8 µg/mL (≈ 2.35 µM) | IC90 [1]: 3.3 µg/mL (≈ 4.3 µM) | IC50 [2]: 1.42 µg/mL (≈ 1.85 µM) | IC90 [2]: 2.91 µg/mL (≈ 3.79 µM) | IC50 [3]: 3.22 µg/mL (≈ 4.2 µM) | IC90 [3]: 7.22 µg/mL (≈ 9.42 µM) | IC50 [4]: 0.13 µg/mL (≈ 0.17 µM) | IC90 [4]: 0.77 µg/mL (≈ 1 µM) | IC50 [5]: 3.38 µg/mL (≈ 4.41 µM) | IC90 [5]: 7.34 µg/mL (≈ 9.57 µM) | IC50 [6]: 3.62 µg/mL (≈ 4.72 µM) | IC90 [6]: 7.25 µg/mL (≈ 9.45 µM) | IC50 [7]: 3.95 µg/mL (≈ 5.15 µM) | IC90 [7]: 7.45 µg/mL (≈ 9.71 µM) | IC50 [8]: 6.19 µg/mL (≈ 8.07 µM) | IC90 [8]: 11.2 µg/mL (≈ 14.6 µM) | IC50 [9]: 2.7 µg/mL (≈ 3.52 µM) | IC90 [9]: 5.9 µg/mL (≈ 7.69 µM) | IC50 [10]: 3.36 µg/mL (≈ 4.38 µM) | IC90 [10]: 5.3 µg/mL (≈ 6.91 µM) | IC50 [11]: 1.58 µg/mL (≈ 2.06 µM) | IC90 [11]: 3.84 µg/mL (≈ 5.01 µM) | IC50 [12]: 2.54 µg/mL (≈ 3.31 µM) | IC90 [12]: 5.91 µg/mL (≈ 7.71 µM) | IC50 [13]: 3.69 µg/mL (≈ 4.81 µM) | IC90 [13]: 7.88 µg/mL (≈ 10.3 µM) | IC50 [14]: 3.4 µg/mL (≈ 4.43 µM) | IC90 [14]: 5.5 µg/mL (≈ 7.17 µM) | IC50 [15]: 2.72 µg/mL (≈ 3.55 µM) | IC90 [15]: 3.98 µg/mL (≈ 5.19 µM) | IC50 [16]: 1.69 µg/mL (≈ 2.2 µM) | IC90 [16]: 5.79 µg/mL (≈ 7.55 µM) | IC50 [17]: 2.11 µg/mL (≈ 2.75 µM) | IC90 [17]: 7.74 µg/mL (≈ 10.1 µM) | antitumor activity compared with that of fangchinoline (tumor): significantly superior
